Reference: patent US9983218B2, “Indole and indoline derivatives and methods of use thereof” (AbbVie Inc., priority 2008, dated 2018)

Columns and labels:
[1] = tested on: mouse model of multiple sclerosis; conditions: in vivo administration; cited from earlier work
PC12 cells = test: Number of neuron-like cells in nerve growth factor-differentiated PC12 cells (HCS microscopy); type: cell-based; conditions: NGF-differentiated PC12 cells, 24 hours post-treatment, normalized to 10 μM dimebolin; FIG. 1
Experimental: For example, studies were conducted using PC12 cells plated in 96-well plates, treated with or without nerve growth factor (100 ng/mL) for 6 days. Compounds were then added at various concentrations (ranging from 0.1 nM to 30 μM), and incubated for 24 hours. Cells were then fixed and stained by neuron marker β-tubulin (green), and nuclei were stained by Hoechst 33342 (blue). Images were collected using the ImageXpress Micro automatic fluorescent microscopy system (Molecular Devices, Sunnyvale, Calif.) employing a Nikon 10× Plan Fluor objective and Cool Snap HQ CCD camera. The Neurite Outgrowth module in the MetaMorph Imaging software was used to automatically count neuron-like number, and the extent of neurite outgrowth (See, FIG. 1).

O=C1C=C(c2ccccc2)C(=O)N1c1cccc(Cl)c1 [1-(3-chlorophenyl)-3-phenyl-pyrrole-2,5-dione]
development of the disease [1]: significantly prevented the development of the disease

Cc1ccc2c(c1)c1c(n2CCc2ccc(C)nc2)CC2CCC1N2C (centres unmarked) [Example 1, 2,11-dimethyl-5-[2-(6-methylpyridin-3-yl)ethyl]-5,6,7,8,9,10-hexahydro-7,10-epiminocyclohepta[b]indole]
number of neuron-like cells (PC12 cells): concentration-dependent effects
